The numbers were not newly measured in patent publication US20060110441A1, “Lyophilized liposome formulations and method” (priority 2004, published 2006), which cites them from elsewhere.

≈ marks a conversion by molar mass, not a printed value.

Conditions in the first series: not given
`Nc1nc(Nc2ccc(S(N)(=O)=O)cc2)nn1C(=O)c1c(F)cccc1F` [1-(2′,6′-difluorobenzoyl)-5-amino-3-(4′-aminosulfonylanilino)-1,2,4-triazole]: the LogP result is reported as “around zero”.
On to `C[C@H]1C[C@H]2[C@@H]3CCC4=CC(=O)C=C[C@]4(C)[C@@]3(F)[C@@H](O)C[C@]2(C)[C@@]1(O)C(=O)CO` [betamethasone], for which the LogP is on record as 1.9.
For the compound `CCC/C=C/C=C/C(=O)O[C@H]1/C(=C/C(=O)OC)C[C@H]2C[C@H]([C@@H](C)O)OC(=O)C[C@H](O)C[C@@H]3C[C@H](OC(C)=O)C(C)(C)[C@](O)(C[C@@H]4C/C(=C/C(=O)OC)C[C@H](/C=C/C(C)(C)[C@]1(O)O2)O4)O3` [bryostatin-1], the LogP is given as 5.4.
As to `CN(C)CC/C=C1/c2ccccc2Sc2ccc(Cl)cc21` [chlorprothixene], the LogP was 6.1.
Consider `C[C@]12C[C@H](O)[C@H]3[C@@H](CCC4=CC(=O)CC[C@@]43C)[C@@H]1CC[C@@H]2C(=O)CO` [corticosterone], for which the LogP was 1.8.
Regarding `CC(=O)O[C@@]12CO[C@@H]1C[C@H](O)[C@@]1(C)C(=O)[C@H](O)C3=C(C)[C@@H](OC(=O)[C@H](O)[C@@H](NC(=O)OC(C)(C)C)c4ccccc4)C[C@@](O)([C@@H](OC(=O)c4ccccc4)[C@H]21)C3(C)C` [docetaxel], the LogP is given as 6.6.
`O=c1[nH]cc(F)c(=O)[nH]1` [fluorouracil]: the LogP was −0.8.
For `CC(=O)O[C@H]1C(=O)[C@@]2(C)[C@H]([C@H](OC(=O)c3ccccc3)[C@]3(O)C[C@H](OC(=O)[C@H](O)[C@@H](NC(=O)c4ccccc4)c4ccccc4)C(C)=C1C3(C)C)[C@]1(OC(C)=O)CO[C@@H]1C[C@@H]2O` [paclitaxel], the log partition coefficient (LogP) was 7.4.

Conditions in another series: not given
This is another data set of the same source.
As for `Nc1nc(Nc2ccc(S(N)(=O)=O)cc2)nn1C(=O)c1c(F)cccc1F` [1-(2′,6′-difluorobenzoyl)-5-amino-3-(4′-aminosulfonylanilino)-1,2,4-triazole], the “water solubility (in words)” value is “very low water solubility”.
Take `COc1cc([C@@H]2c3cc4c(cc3[C@@H](O[C@@H]3O[C@@H]5CO[C@@H](C)O[C@H]5[C@H](O)[C@H]3O)[C@H]3COC(=O)[C@H]23)OCO4)cc(OC)c1O` [etopside, reference compound]: the aqueous solubility was 30 µg/mL (≈ 51 µM).

For a further series the following is noted: hydrated lipid.
As to `CCCCCCCC/C=C\CCCCCCCC(=O)OC[C@H](COP(=O)(O)OCCN)OC(=O)CCCCCCC/C=C\CCCCCCCC` [DOPE, dioleoyl phosphoethanolamine], the “Tm, phase transition temperature” value was −16 °C.
As for `CCCCCCCC/C=C\CCCCCCCC(=O)OC[C@H](COP(=O)(O)OCC(O)CO)OC(=O)CCCCCCC/C=C\CCCCCCCC` (some centres unmarked) [DOPG, dioleoyl phosphatidylglycerol], the “Tm, phase transition temperature” value is −18 °C.
In the case of `CCCCCCCCCCCCCCCCCC(=O)OC[C@H](COP(=O)([O-])OCC[N+](C)(C)C)OC(=O)CCCCCCCCCCCCCCCCC` [DSPC, distearoyl phosphatidylcholine], the “Tm, phase transition temperature” value is 55 °C.
Consider `CCCCCCCC/C=C\CCCCCCCC(=O)O[C@H](COC(=O)CCCCCCCCCCCCCCC)COP(=O)([O-])OCC[N+](C)(C)C` [POPC, palmitoyloleoyl phosphatidylcholine], for which the “Tm, phase transition temperature” value was −2 °C.
For the compound `CCCCC/C=C\C/C=C\CCCCCCCC(=O)OC[C@H](COP(=O)(O)OCCN)OC(=O)CCCCCCC/C=C\C/C=C\CCCCC` [dilinoleoyl phosphoethanolamine], the “Tm, phase transition temperature” value is −40 °C.
In the case of `CCCCCCCC/C=C\CCCCCCCC(=O)OC[C@H](COP(=O)(O)O)OC(=O)CCCCCCC/C=C\CCCCCCCC` [dioleoyl PA], the “Tm, phase transition temperature” value was −8 °C.
`CCCCCCCC/C=C\CCCCCCCC(=O)OC[C@H](COP(=O)(O)OC[C@H](N)C(=O)O)OC(=O)CCCCCCC/C=C\CCCCCCCC` [dioleoyl PS]: the “Tm, phase transition temperature” value was −11 °C.
Turning to `CCCCCCCCCCCCCCCCCC(=O)OC[C@H](COP(=O)(O)O)OC(=O)CCCCCCCCCCCCCCCCC` [distereoyl PA], the “Tm, phase transition temperature” value is 75 °C.
Consider `CCCCCCCCCCCCCCCCCC(=O)OC[C@H](COP(=O)(O)OCC(O)CO)OC(=O)CCCCCCCCCCCCCCCCC` (some centres unmarked) [distereoyl PG], for which the “Tm, phase transition temperature” value was 55 °C.
`CCCCCCCCCCCCCCCCCC(=O)OC[C@H](COP(=O)(O)OC[C@H](N)C(=O)O)OC(=O)CCCCCCCCCCCCCCCCC` [distereoyl PS]: the “Tm, phase transition temperature” value was 68 °C.
Turning to `CCCCCCCCCCCCCCCCCC(=O)OC[C@H](COP(=O)(O)OCCN)OC(=O)CCCCCCCCCCCCCCCCC` [disteroyl phosphoethanolamine], the “Tm, phase transition temperature” value is 74 °C.
Regarding `CCCCCCCC/C=C\CCCCCCCC(=O)OC[C@H](COP(=O)([O-])OCC[N+](C)(C)C)OC(=O)CCCCCCCCCCCCCCC` [oleoyl palmitoyl PC, oleolyl palmitoyl phosphatidylcholine], the “Tm, phase transition temperature” value was −9 °C.
With `CCCCCCCC/C=C\CCCCCCCC(=O)OC[C@H](COP(=O)([O-])OCC[N+](C)(C)C)OC(=O)CCCCCCCCCCCCCCCCC` [oleoyl stearyol PC, oleoyl stearoyl phosphatidylcholine], the “Tm, phase transition temperature” value was 5 to 13 °C.
Consider `CCCCCCCC/C=C\CCCCCCCC(=O)O[C@H](COC(=O)CCCCCCCCCCCCCCCCC)COP(=O)([O-])OCC[N+](C)(C)C` [stearyol oleoyl PC, stearyoyl oleoyl phosphatidylcholine], for which the “Tm, phase transition temperature” value is 8 to 13 °C.
Take palmitoyl docosahexaenoyl PC: the “Tm, phase transition temperature” value is −27 °C.

Still in this series, the particulars now being: hydrated lipid; listed as palmitoyl oleoyl PC.
As to `CCCCCCCC/C=C\CCCCCCCC(=O)O[C@H](COC(=O)CCCCCCCCCCCCCCC)COP(=O)([O-])OCC[N+](C)(C)C` [POPC, palmitoyloleoyl phosphatidylcholine], the “Tm, phase transition temperature” value was −5 to 3 °C.
